Results on one compound are retold here after PMC11031590, “Narazaciclib, a novel multi-kinase inhibitor with potent activity against CSF1R, FLT3 and CDK6, shows strong anti-AML activity in defined preclinical models” (Scientific Reports, 2024).

Values joined by “and” are separate entries in the source; they are usually repeats but may differ in a detail not shown here. Equal values may be shown once. Read-outs that look alike come from different tables or passages of the source.

In assay [1] the test system is PLB-985. Nature of the assay: AML cell line in vitro proliferation assay. The class given is cell-based. On the procedure: (§1) Narazaciclib was serially diluted with culture medium to 9 final assay concentrations from 0.01 to 100 μM. The assay was performed with both a negative control (vehicle) and a positive control (Cisplatin) in triplicate. The AML cell lines at log-growth phase were cultured in 96-well plates (black transparent flat bottom 96-well plate, Corning, Cat# 3603, FBS, ExCell Bio., Cat# FND500) in the presence of narazaciclib or Cisplatin at various concentrations for 72 h or 120 h (only for AML-193 cell line), followed by CTG readout according to the manufacturer’s instruction (CellTiter-Glo Luminescent Cell Viability Assay, Promega, Cat# G7573). Viability%=Lumdrug-Lummedium control/Lumcell control-Lummedium control×100%. Lumcell control-Lummedium controlas100%,LumMediumcontrolas0%. Proliferationfold increase=D5-LumNone treated-LumMedium control/D2LumNone treated-LumMedium control
(§2) Dose–response curves were fitted by a 4-parameter log-logistic model: Inhibition%=Bottom+Top-Bottom/1+10^logEC50-x∗HillSlope where Top and Bottom are the two asymptotes of the sigmoidal curve, EC50 is the relative IC50, concentration x is in log-10 scale and HillSlope is the slope at the EC50 point on the fitted curve. The fitted area under the curve (AUC) was calculated by: Inhibition%=Bottom+Top-Bottom/1+10^logEC50-x∗HillSlope where a represents the log10-transformed minimal concentration and b represents the log10-transformed maximal concentration. An extremely strong positive correlation between the absolute IC50 and AUC is shown in Supplemental Fig. S5.

In assay [2] the test system is EOL1. Nature of the assay: AML cell line in vitro proliferation assay. The assay is classed as cell-based. The method, then: as §1, §2
For assay [3], the system named is KG-1A. In words: AML cell line in vitro proliferation assay. The assay is classed as cell-based. The method, then: as §1, §2
Assay [4] concerns Ba/F3-FLT3-ITD (D835F). Nature of the assay: Ba/F3-FLT3-ITD (D835F) proliferation assay. The class given is cell-based, mouse. The method, then:
(§3) The recombinant Ba/F3 cell lines overexpressing human CSF1R, or human RBM6-CSF1R, or human ETV6-CSF1R were generated using a retrovirus vector (Kyinno Co., Ltd. Beijing). The recombinant Ba/F3 lines overexpressing human Kras G12C orEGFR-L718Q mutants, and different mutant variants of FLT3 were also similarly created as well. A standard proliferation assay via CTG readout was performed according to the vendor’s instructions (KYinno Biotechnology Co., Ltd. Beijing).

In assay [5] the test system is M2 primary macrophages. In words: Primary macrophage proliferation assay. The class given is cell-based. Conditions: Homo sapiens. The method, then:
Human primary monocytes were isolated with an EasySep™ monocyte isolation kit (Stem Cell) from cryopreserved human PBMCs. […] Narazaciclib was serially diluted with culture medium to 9 final concentrations from 0.004 µM to 24 µM. The differentiated macrophages were incubated for 7 days at 37 °C followed by incubation with Cell Counting-Lite2.0 reagent (Vazyme) for 5 min on a shaker. Luminescence was recorded […]. The proliferation inhibition IC50 (half maximal inhibition concentration) of narazaciclib was determined by fitting the dose–response data to a four-parameter stimulation model.

Assay [6] concerns AM7407 AML-PDX. In words: AM7407 systemic AML-PDX model. The class given is in vivo, NOD/scid mice. Conditions: AM7407, 100 mg/kg orally every day. On the procedure:
For systemic AML-PDX models, the model establishment and narazaciclib pharmacology experiment were performed essentially as described previously. Briefly, 2 × 10^6 AM7407 cells, or 2 × 10^6 AM7577 cells, or 2 × 10^6 AM5512 cells, or 1.65 × 10^6 AM8096 cells were inoculated intravenously into 4- to 5-week-old female NOD/scid mice for AML development. Engraftment was confirmed by the presence of circulating human CD45+ cells (anti-human CD45 antibody, Cat. 304038, Biolegend) in peripheral blood. Mice with successful engraftment of AML-PDX were randomized into different treatment groups (N = 6) and received their designated treatments. Narazaciclib was administrated orally or intraperitoneally at 10 mg/kg, or 30 mg/kg, or 100 mg/kg every day throughout the study, while Cytarabine was administrated intraperitoneally at 3 mg/kg every day. Following the initiation of designated treatments, leukemic burden was monitored by flow cytometry with anti-human CD45 antibody on the peripheral blood every week as well as on the peripheral blood, bone marrow cells and splenocytes of mice at sacrifice. Mice were sacrifice once the followings are observed: body weight loss over 20%, reduced motility and activity, labored breathing, ruffled coat, hunched back and severe dehydration.

Assay [7] deals with Ba/F3-CSF1R cell line. In words: Ba/F3-CSF1R proliferation assay (CTG). The assay is classed as cell-based, mouse. The method, then:
as §3

For assay [8], the target named is CSF1R (Homo sapiens, UniProt P07333). Nature of the assay: CSF1R kinase inhibition assay. The class given is biochemical. The settings on record: read-out: IC50 CSF1R enzymatic activity. On the procedure:
For CSF1R inhibition, TK-substrate-biotin and ATP were incubated at room temperature for 40 min, followed by adding different concentrations of […] and TK-antibody-Cryptate into each well of the assay plate and incubation at room temperature for 1 h. The fluorescence signal was read at 615 nm (Cryptate) and 665 nm (XL665) on an Envision 2104 plate reader.

For assay [9], the target named is CDK6-CyclinD1 (Homo sapiens, UniProt Q00534). In words: CDK6 TR-FRET kinase assay. The class given is biochemical. Conditions: ATP 250 µM; read-out: IC50 CDK6 enzymatic activity. The method, then:
For CDK6 inhibition, a Time-resolved fluorescence energy transfer (TR-FRET) kinase assay was performed according to the manufacturer’s instructions. Briefly, narazaciclib at various concentrations was pre-incubated with CDK6-CyclinD1 in kinase buffer at 25 °C for 1 h and then incubated with 12.5 nM Ulight-4E-BP1 peptide and 250 µM ATP at 25 °C for 2 h. The reaction was stopped by incubating with EDTA-containing stop buffer at 25 °C for 5 min. Subsequently, the mixture was incubated with detection buffer at 25 °C for 1 h. Finally, the signal was read on a Nivo Reader in TR-FRET mode (excitation at 320 nm and emission at 665 nm and 615 nm). The signal of the blank control was subtracted from the maximum signal (DMSO without compound) as well as from the value of narazaciclib at each concentration. This corrected emission ratio (ER) was used to calculate the percentage of enzyme activity recovery: enzyme activity recovery (%) = [(narazaciclib ER – blank control ER)[…]] × 100. The results were fitted to a dose–response curve by a 4-parameter log-logistic model: Inhibition%=Bottom+Top-Bottom/1+10^logEC50-x∗HillSlope

Sequence of CSF1R (P07333 20-972): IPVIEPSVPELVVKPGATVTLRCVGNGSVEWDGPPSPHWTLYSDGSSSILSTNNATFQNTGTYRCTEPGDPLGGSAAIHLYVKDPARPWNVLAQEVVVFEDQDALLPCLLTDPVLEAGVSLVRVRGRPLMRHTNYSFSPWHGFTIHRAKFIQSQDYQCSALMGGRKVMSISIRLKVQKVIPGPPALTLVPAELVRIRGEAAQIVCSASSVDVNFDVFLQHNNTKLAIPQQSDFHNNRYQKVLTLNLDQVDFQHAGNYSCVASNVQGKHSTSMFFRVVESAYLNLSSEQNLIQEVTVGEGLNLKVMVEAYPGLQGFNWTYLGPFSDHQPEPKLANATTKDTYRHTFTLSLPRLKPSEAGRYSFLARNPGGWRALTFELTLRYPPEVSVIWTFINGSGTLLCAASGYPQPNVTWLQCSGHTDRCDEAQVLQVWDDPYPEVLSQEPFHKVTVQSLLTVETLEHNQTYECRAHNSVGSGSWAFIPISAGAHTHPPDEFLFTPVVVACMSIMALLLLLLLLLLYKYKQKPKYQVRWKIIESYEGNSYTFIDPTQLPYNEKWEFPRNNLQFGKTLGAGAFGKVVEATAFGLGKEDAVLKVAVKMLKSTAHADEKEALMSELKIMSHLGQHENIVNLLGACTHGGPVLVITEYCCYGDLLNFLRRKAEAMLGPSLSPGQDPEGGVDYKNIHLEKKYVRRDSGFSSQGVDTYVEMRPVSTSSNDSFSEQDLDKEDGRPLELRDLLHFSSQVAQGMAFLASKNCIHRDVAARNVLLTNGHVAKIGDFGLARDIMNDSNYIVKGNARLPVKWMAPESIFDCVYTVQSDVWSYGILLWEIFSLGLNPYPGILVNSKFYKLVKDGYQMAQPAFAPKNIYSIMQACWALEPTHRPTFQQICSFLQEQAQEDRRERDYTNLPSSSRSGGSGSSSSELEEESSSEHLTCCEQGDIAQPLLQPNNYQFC
Sequence of CDK6-CyclinD1 (Q00534 whole entry): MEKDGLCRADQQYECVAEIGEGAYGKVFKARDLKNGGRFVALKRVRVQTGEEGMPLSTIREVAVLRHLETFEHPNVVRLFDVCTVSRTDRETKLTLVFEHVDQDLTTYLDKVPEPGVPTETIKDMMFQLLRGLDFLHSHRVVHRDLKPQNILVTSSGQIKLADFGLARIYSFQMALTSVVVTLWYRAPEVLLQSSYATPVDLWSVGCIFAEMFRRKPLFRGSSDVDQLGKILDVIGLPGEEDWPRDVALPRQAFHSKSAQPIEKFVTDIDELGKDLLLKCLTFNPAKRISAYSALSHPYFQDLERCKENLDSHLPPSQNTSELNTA
Sequence of CDK6-CyclinD1 (P24385 whole entry partner): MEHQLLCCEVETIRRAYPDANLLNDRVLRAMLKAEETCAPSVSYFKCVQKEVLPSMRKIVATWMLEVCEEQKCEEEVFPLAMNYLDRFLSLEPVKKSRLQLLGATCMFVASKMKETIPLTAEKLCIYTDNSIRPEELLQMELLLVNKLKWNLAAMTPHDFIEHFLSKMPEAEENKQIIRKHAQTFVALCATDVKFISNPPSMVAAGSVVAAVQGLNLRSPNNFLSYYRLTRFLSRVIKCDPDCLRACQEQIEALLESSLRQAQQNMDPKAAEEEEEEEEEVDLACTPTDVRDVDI

`CN1CCN(c2ccc(Nc3ncc4cc(C#N)c(=O)n(C5CCCC5)c4n3)cc2)CC1` [Narazaciclib, narazaciclib]: the “Classification by AUC” value is given as “Insensitive (AUC ≥ 2.8, insensitive)” in assay [1] (PLB-985); “Sensitive (AUC ≤ 2.4, sensitive)” in assay [2] (EOL1); “Sensitive (AUC ≤ 2.4, sensitive)” in assay [3]. Besides, the IC50 was found to be 14100 nM in assay [1] (PLB-985, 72 h, CTG); 35 nM in [2] (Homo sapiens, EOL1, 72 h, CTG); 1060 nM in [3] (Homo sapiens, 72 h, CTG); 69.6 nM in [4] (Mus musculus); 72.5 nM in assay [5] (M2-macrophages, read-out: IC50 M2-macrophage proliferation); 3650 nM in assay [5] (M-CSF : GM-CSF Ratio 0:100, read-out: IC50 M2-Macrophages Growth Inhibition). In addition, the IC50 in assay [5] (M-CSF : GM-CSF Ratio 25:75, read-out: IC50 M2-Macrophages Growth Inhibition) was 3520 nM; in assay [5] (M-CSF : GM-CSF Ratio 50:50, read-out: IC50 M2-Macrophages Growth Inhibition) it was 3970 nM; in [5] (M-CSF : GM-CSF Ratio 75:25, read-out: IC50 M2-Macrophages Growth Inhibition), 3700 nM; in assay [7] (Mus musculus, + 100 ng/ml CSF-1) it was around 3.54 nM; in assay [8], ~0.285 nM and 0.29 nM; in [9], 0.53 nM. The AUC in assay [1] (PLB-985, area under the dose–response curve) is given as 2.988; in [2] (EOL1, area under the dose–response curve), 0.5917; in assay [3] (area under the dose–response curve) it was 2.289. In addition, the “% of Ba/F3-FLT3 (IC50)” value in [4] is recorded as 23.10%. The response of model result in assay [6] is “did not respond”. The “times more potent than GW2580” value in [7] (Ba/F3-CSF1R in the presence of CSF1) is listed as 16 times.
